Test results taken from patent US10752900B2, “Oligonucleotides for modulating gene expression and uses thereof” (BIOGENERA S.P.A., priority 2012, dated 2020).

Experiments:
[1] = system: Phoenix; assay: Cellular proliferation, Phoenix fibroblastoid-type cells; assay type: cell-based; details: Table 1; cells that do not express MYCN
Method: Cell viability was assessed by means of an ATP-Lite assay (Luminescence ATP Detection Assay System, PerkinElmer) and is reported as the ratio between the average signal of the treated wells compared to the average value of the wells of untreated control cells. The cells were processed following the instructions provided with the kit.
Moreover, the oligonucleotides having SEQ ID NO 1-23 were administered in lines of fibroblastoid-type cells (NIH-3T3 and Phoenix) and the results are shown in Table 1 (last two columns). […]

[2] = system: MYCN gene; assay: QT-PCR, MYCN mRNA in SKNBE2c cells; assay type: cell-based, human; details: Table 6
Method: For the purpose of assessing the ability of the oligonucleotides of the present invention to modulate the expression of the target genes, their ability to reduce the quantity of messenger RNA was analyzed using the Real-Time PCR technique. For this purpose, use was made of 24-well plates, which were seeded with 5.0×10^4 cells with 0.3 ml of OPTI-MEM (GIBCO BRL) medium, 4% FBS and 2 mM L-glutammine (experiments in triplicate) per well. The cells were incubated for 24 hours at 37° C., in an atmosphere containing 5% CO2 to permit adherence to the base of the wells. For each well, the oligonucleotides were analyzed at the following final concentrations: • the antisense oligonucleotides siRNA and siRNA gapmer (i.e. the oligonucleotides containing one or more monomers of chemically modified nucleic acids at the 3' or 5' end, while in the central portion they have monomers of nucleic acids that have not been modified or have been modified at the level of the phosphodiester bond as a phosphorothioate bond) were used at 200 nM; • the antisense oligonucleotides containing phosphorothioate DNA monomers, the RNA antigene oligonucleotides (agRNA) and the oligonucleotides containing DNA monomers and LNA monomers were used at 10 μM; • the morpholino oligonucleotides were used at a concentration of 1 μM, and • the PNA oligonucleotides were administered at a concentration of 1 μM. The cells were treated with the oligonucleotides, adding FBS up to 4% 6 hours after administration of the same. After 24 hours the total RNA was extracted from each well and purified using the RNeasy Mini Kit (QIAGEN). Assays were performed on 8 cell lines obtained from 5 different human tumours which are correlated with MYCN expression, i.e.: • as a neuroblastoma model use was made of the cell lines Kelly, IMR-32 (where the MYCN gene is amplified and superexpressed) and SKNBE2c and LAN1 (where the MYCN gene is amplified and superexpressed and the p53 gene is mutated); • as a rabdomiosarcoma model use was made of the cell line RH30, where the MYCN gene is amplified and superexpressed; • as a Wilms' tumour model use was made of the cell line WiT49, where the MYCN gene is amplified and superexpressed; • as a retinoblastoma model use was made of the cell line Y79, where the MYCN gene is amplified and superexpressed; and • as a model of small cell lung cancer use was made of the cell line H69 where the MYCN gene is amplified and superexpressed. As a control, use was made of the same cell lines as listed above treated with sterile water instead of oligonucleotides. Each RNA sample was quantified (in duplicate) using a NanoDrop ND-1000 spectrophotometer (NanoDrop Technologies). The first strand of cDNA was produced using the cDNA Synthesis Kit for RT-PCR (Roche). For the cDNA synthesis reaction a total of 1 μg of RNA was used. For the real-time PCR, 10 ng of cDNA in a final volume of 20 μl was used with SYBR Green Master Mix 2× (Applied Biosystems) (3 identical experiments were conducted in triplicate). Two housekeeping genes were used as positive controls: GAPDH and beta-actin (ACTB). The conditions of the QT-PCR reaction were: 10 min at 95° C., 20 sec at 95° C., and 30 sec at 60° C., for 50 cycles. The PNAs having SEQ ID NO: 1-12 were also tested on different cell lines which overexpress MYCN (Kelly, SKNBE2c, RH30, […] 1 and H69). The results are shown in Table 6 and confirm the selectivity and specificity of the inhibition effect of the PNAs on the product of protein translation of the MYCN gene.

Substance | Phoenix prolif. (%) [1] [%] | SKNBE2c % mRNA [2] [%]
SEQ ID NO: 3: PNA antigene oligonucleotide GATGCGGGGGGCTCCT directed against MYCN (PNA backbone, chemistry not fully specified) | 100 | 68
SEQ ID NO: 12: PNA antigene oligonucleotide TGTCTGGACGCGCTGG directed against MYCN (all peptide nucleic acid (PNA)) | 100 | 40
SEQ ID NO: 6: PNA antigene oligonucleotide TGGACGCGCTGGGTGG directed against MYCN (PNA backbone, chemistry not fully specified) | 100 | 62
SEQ ID NO: 9: PNA antigene oligonucleotide CCCTGCAGTCGGCGGG directed against MYCN (all peptide nucleic acid (PNA)) | 100 | 58
SEQ ID NO: 4: PNA antigene oligonucleotide GTCGGCGGGAGGTAAG directed against MYCN (PNA backbone, chemistry not fully specified) | 100 | 60
SEQ ID NO: 11: PNA antigene oligonucleotide GGGAACTGTGTTGGAG directed against MYCN (PNA backbone, chemistry not fully specified) | 100 | 40
SEQ ID NO: 8: PNA antigene oligonucleotide GTCTGGACGCGCTGGG directed against MYCN (all peptide nucleic acid (PNA)) | 100 | 62
SEQ ID NO: 5: PNA antigene oligonucleotide GCTGGGTGGATGCGGG directed against MYCN (PNA backbone, chemistry not fully specified) | 100 | 59
SEQ ID NO: 2: PNA antigene oligonucleotide GGGTGGATGCGGGGGG directed against MYCN (PNA backbone, chemistry not fully specified) | 100 | 75
SEQ ID NO: 7: PNA antigene oligonucleotide CGCGCTGGGTGGATGC directed against MYCN (all peptide nucleic acid (PNA)) | 100 | 60
SEQ ID NO: 1: PNA ATGCCGGGCATGATCT against MYCN; subject of patent EP 1618195, control sequence used for comparison (all peptide nucleic acid (PNA)) [reference compound] | 100 | 41
SEQ ID NO: 10: PNA antigene oligonucleotide CGGCCGCGGGCCGCCA directed against MYCN (PNA backbone, chemistry not fully specified) | 100 | 41
